The numbers were not newly measured in patent publication US20070020305A1, “Attractant for monitoring or controlling female stored product moths” (Board of Regents for Oklahoma State University, priority 2004, published 2007), which cites them from elsewhere.

The test system of the data set is stored product moths. To be noted: for Attraction of females and males: Indianmeal moth and Mediterranean flour moth, Toth et al. 2002.

Take `CC(=O)O` [acetic acid]: the “Attraction of females and males” value was “would attract females and males”.

With `CCCCC/C=C\C=C\C(=O)OCC` [ethyl-decdienoate], where the note is “background statement”, the “Attractiveness to stored product moths, in words” value was “not attractive”.

`CC(C)CCO` [isoamyl alcohol]: the “Attraction of females and males” value is “would attract females and males”.
